These are literature values, as cited in US20240189459A1, “METASTABLE-FREE LANTHANIDE BASED CONTRAST AGENTS AND METHOD” (Inventure LLC, priority 2022, published 2024).

For this data set the following is noted: thermodynamic stability constant of the DOTA complex with the listed metal ion.
As to `O=C([O-])CN1CCN(CC(=O)[O-])CCN(CC(=O)O)CCN(CC(=O)O)CC1.[Mg+2]` [Mg^+2], the “Stability Constant” value is given as 11.9.

As for `O=C([O-])CN1CCN(CC(=O)[O-])CCN(CC(=O)[O-])CCN(CC(=O)[O-])CC1.[Cu+2]` [Cu^+2], the “Stability Constant” value is given as 22.3.

In the case of `O=C([O-])CN1CCN(CC(=O)[O-])CCN(CC(=O)[O-])CCN(CC(=O)[O-])CC1.[Gd+3]` [Gd^+3], the “Stability Constant” value is reported as 24.7.

Regarding `O=C([O-])CN1CCN(CC(=O)[O-])CCN(CC(=O)[O-])CCN(CC(=O)[O-])CC1.[Fe+3]` [Fe^+3], the “Stability Constant” value was 29.4.

Take `O=C([O-])CN1CCN(CC(=O)[O-])CCN(CC(=O)[O-])CCN(CC(=O)[O-])CC1.[Eu+3]` [Eu^+3]: the “Stability Constant” value is 23.5.

For `O=C([O-])CN1CCN(CC(=O)[O-])CCN(CC(=O)O)CCN(CC(=O)O)CC1.[Ca+2]` [Ca^+2], the “Stability Constant” value is 17.2.

As for `O=C([O-])CN1CCN(CC(=O)[O-])CCN(CC(=O)[O-])CCN(CC(=O)[O-])CC1.[Tm+3]` [TM^+3], the “Stability Constant” value was 24.4.

Consider `O=C([O-])CN1CCN(CC(=O)[O-])CCN(CC(=O)[O-])CCN(CC(=O)[O-])CC1.[Pr+3]` [Pr^+3], for which the “Stability Constant” value is listed as 23.

`O=C([O-])CN1CCN(CC(=O)[O-])CCN(CC(=O)O)CCN(CC(=O)O)CC1.[Zn+2]` [Zn^+2]: the “Stability Constant” value is 20.8.

`O=C([O-])CN1CCN(CC(=O)O)CCN(CC(=O)O)CCN(CC(=O)O)CC1.[Na+]` [Na^+1]: the “Stability Constant” value is 4.2.

On to `O=C([O-])CN1CCN(CC(=O)[O-])CCN(CC(=O)[O-])CCN(CC(=O)[O-])CC1.[Dy+3]` [Dy^+3], for which the “Stability Constant” value is 24.8.
